According to ChEMBL document CHEMBL4715876 (J Med Chem, 2020):
≈ marks a conversion by molar mass, not a printed value.

What was measured:
[1] = Cmax in BALB/C mouse at 10 mg/kg,po measured upto 24 hrs by LC-MS analysis; assay type: ADME, organism-based; set-up: route oral, dose 10 mg/kg, time <= 24; conditions: in vivo
[2] = Lipophilicity, log D of compound at pH 7.4; assay type: physicochemical; conditions: buffer
[3] = AUClast in BALB/C mouse at 10 mg/kg,po measured upto 24 hrs by LC-MS analysis; assay type: ADME, organism-based; set-up: route oral, dose 10 mg/kg, time <= 24; conditions: in vivo
[4] = Oral bioavailability in BALB/C mouse at 10 mg/kg measured upto 24 hrs by LC-MS analysis; assay type: ADME, organism-based; conditions: in vivo
[5] = AUClast in BALB/C mouse at 1 mg/kg, iv measured upto 24 hrs by LC-MS analysis; assay type: ADME, organism-based; set-up: route intravenous, dose 1 mg/kg, time <= 24; conditions: in vivo
[6] = Solubility of the compound; assay type: physicochemical
[7] = Tmax in BALB/C mouse at 1 mg/kg, iv measured upto 24 hrs by LC-MS analysis; assay type: ADME, organism-based; conditions: in vivo
[8] = Volume of distribution at steady state in BALB/C mouse at 1 mg/kg, iv measured upto 24 hrs by LC-MS analysis; assay type: ADME, organism-based; conditions: in vivo, read-out: Vdss
[9] = Cmax in BALB/C mouse at 1 mg/kg, iv measured upto 24 hrs by LC-MS analysis; assay type: ADME, organism-based; set-up: route intravenous, dose 1 mg/kg, time <= 24; conditions: in vivo
[10] = Tmax in BALB/C mouse at 10 mg/kg, po measured upto 24 hrs by LC-MS analysis; assay type: ADME, organism-based; conditions: in vivo
[11] = Cmax in BALB/C mouse at 10 mg/kg, iv measured upto 24 hrs by LC-MS analysis; assay type: ADME, organism-based; set-up: route intravenous, dose 10 mg/kg, time <= 24; conditions: in vivo
[12] = Tmax in Beagle dog at 5 mg/kg, po measured upto 24 hrs by LC-MS/MS analysis; assay type: ADME, organism-based, Canis lupus familiaris; conditions: in vivo
[13] = AUClast in BALB/C mouse at 10 mg/kg, iv measured upto 24 hrs by LC-MS analysis; assay type: ADME, organism-based; set-up: route intravenous, dose 10 mg/kg, time <= 24; conditions: in vivo
[14] = Tmax in Sprague-Dawley rat at 10 mg/kg, po measured upto 24 hrs by LC-MS/MS analysis; assay type: ADME, organism-based; conditions: in vivo
[15] = Cmax in Sprague-Dawley rat at 10 mg/kg, po measured upto 24 hrs by LC-MS/MS analysis; assay type: ADME, organism-based; set-up: route oral, dose 10 mg/kg, time <=24; conditions: in vivo
[16] = Oral bioavailability in Beagle dog at 5 mg/kg measured upto 24 hrs by LC-MS/MS analysis; assay type: ADME, organism-based, Canis lupus familiaris; conditions: in vivo
[17] = Cmax in Beagle dog at 5 mg/kg, po measured upto 24 hrs by LC-MS/MS analysis; assay type: ADME, organism-based, Canis lupus familiaris; set-up: route oral, dose 5 mg/kg, time <=24; conditions: in vivo
[18] = Volume of distribution at steady state in Sprague-Dawley rat at 2 mg/kg, iv measured upto 24 hrs by LC-MS/MS analysis; assay type: ADME, organism-based; conditions: in vivo, read-out: Vdss
[19] = Cmax in Sprague-Dawley rat at 2 mg/kg, iv measured upto 24 hrs by LC-MS/MS analysis; assay type: ADME, organism-based; set-up: route intravenous, dose 2 mg/kg, time <=24; conditions: in vivo
[20] = AUClast in Beagle dog at 5 mg/kg, po measured upto 24 hrs by LC-MS/MS analysis; assay type: ADME, organism-based, Canis lupus familiaris; set-up: route oral, dose 5 mg/kg, time <=24; conditions: in vivo
[21] = Oral bioavailability in Sprague-Dawley rat at 10 mg/kg measured upto 24 hrs by LC-MS/MS analysis; assay type: ADME, organism-based; conditions: in vivo
[22] = AUClast in Beagle dog at 1 mg/kg, iv measured upto 24 hrs by LC-MS/MS analysis; assay type: ADME, organism-based, Canis lupus familiaris; set-up: route intravenous, dose 1 mg/kg, time <=24; conditions: in vivo
[23] = Tmax in Sprague-Dawley rat at 2 mg/kg, iv measured upto 24 hrs by LC-MS/MS analysis; assay type: ADME, organism-based; conditions: in vivo
[24] = Cmax in Beagle dog at 1 mg/kg, iv measured upto 24 hrs by LC-MS/MS analysis; assay type: ADME, organism-based, Canis lupus familiaris; set-up: route intravenous, dose 1 mg/kg, time <=24; conditions: in vivo
[25] = AUClast in Sprague-Dawley rat at 2 mg/kg, iv measured upto 24 hrs by LC-MS/MS analysis; assay type: ADME, organism-based; set-up: route intravenous, dose 2 mg/kg, time <=24; conditions: in vivo
[26] = Tmax in BALB/C mouse at 10 mg/kg, iv measured upto 24 hrs by LC-MS analysis; assay type: ADME, organism-based; conditions: in vivo
[27] = Volume of distribution at steady state in Beagle dog at 1 mg/kg, iv measured upto 24 hrs by LC-MS/MS analysis; assay type: ADME, organism-based, Canis lupus familiaris; conditions: in vivo, 1 mg/kg, 24 h

| Cmax [1] | logD [2] | AUC(0-t) at 24 h [3] | bioavailability [4] | AUC(0-t) at 24 h [5] | solubility [6] | Tmax [7] | Vd [8] | Cmax [9] | Tmax [10] | SMILES | other results |
| --- | --- | --- | --- | --- | --- | --- | --- | --- | --- | --- | --- |
| 2600 nM | 1.26 | 3.5 µM·h | 22% | 1.6 µM·h | 691 µM (≈ 287 µg/mL) | 4.8 min | 1.3 L/kg | 2300 nM | 30 min | C[C@H](Nc1nc(N)nc(N)c1C#N)c1cc2ccc(F)cn2c(=O)c1-c1ccccc1 |  |
|  | 2.49 |  |  |  | 50.6 µM (≈ 24.9 µg/mL) |  |  |  |  | C[C@H](Nc1nc(N)nc(N)c1C#N)c1c(-c2ccccc2)c(=O)n2cc(F)ccc2c1-c1ccccc1 |  |
| 4700 nM | 1.88 | 12 µM·h | 60% | 2 µM·h | 368 µM (≈ 166 µg/mL) | 4.8 min | 1.9 L/kg | 1100 nM | 30 min | C[C@H](Nc1nc(N)nc(N)c1C#N)c1cc(=O)n2cc(F)ccc2c1-c1cc(F)cc(F)c1 |  |

| SMILES | Cmax [1] | logD [2] | AUC(0-t) at 24 h [3] | bioavailability [4] | AUC(0-t) at 24 h [5] | solubility [6] | Tmax [7] | Vd [8] | Cmax [9] | Tmax [10] | other results |
| --- | --- | --- | --- | --- | --- | --- | --- | --- | --- | --- | --- |
| C[C@H](Nc1ncnc2[nH]cnc12)c1nc2cccc(Cl)c2c(=O)n1-c1ccccc1 | 930 nM |  | 0.328 µM·h | 7% |  |  |  |  |  | 4.98 min | Cmax [11]: 13300 nM; Tmax [12]: 79.8 min; AUC(0-t) at 24 h [13]: 4.55 µM·h; Tmax [14]: 72 min; Cmax [15]: 1880 nM; F [16]: 40%; Cmax [17]: 5680 nM; Vd [18]: 1.66 L/kg; Cmax [19]: 3640 nM; AUClast [20]: 26.25 µM·h; bioavailability [21]: 57%; AUClast [22]: 1.88 µM·h; Tmax [23]: 4.98 min; Cmax [24]: 1200 nM; AUC(0-t) at 24 h [25]: 2.77 µM·h; Tmax [26]: 4.98 min; Vdss [27]: 57 L/kg |
